Measured values taken from patent US20240279615A1, “COMPOSITIONS COMPRISING DIPEPTIDES AND TRACE ELEMENTS” (Evonik Operations GmbH, priority 2021, published 2024).
“Also recorded” adds a separate entry of the source. Where a SMILES comes first, the peptide text is derived from it. Bridges are numbered along the chain shown (N, C = ends). Roman numbers before positions name the chains, in order.

Assays:
[1] = system: Human mesenchymal stem cells (MSCs); test: In vitro cytotoxicity assay (CellTiter-Glo ATP viability) on MSCs; format: cell-based; conditions: for positive effect on viability of dipeptide combined with Cu(II): 24 h, selected combinations of dipeptide and Cu(II)
Method: (§1) Human mesenchymal stem cells (MSCs) were cultivated in MesenCult™-ACF Plus Culture Kit (Stemcell Technologies). The medium was prepared according to the manufacturer's instructions with addition of […] gentamicin and 2 mM I-glutamine. Agarabi CHO cells were cultivated in ActiPro medium supplemented with 6 mM I-glutamine. “Complete growth medium” references the medium with added supplements used for the cultivation of the corresponding cell type.
(§2) Stock solutions of Cu(II), I-cysteine, N, N′-di-I-alanyl-I-cysteine ((Ala-Cys)2) and N, N′-di-I-lysyl-I-cysteine ((Lys-Cys)2) were brought into solution in the corresponding complete growth medium immediately prior to their use. For the assay performed with combinations of Cu(II) and I-cysteine, (Ala-Cys)2 or (Lys-Cys)2 on MSCs, the dissolved single compounds were mixed together at 2× treatment concentration. On MSCs, I-cysteine and the dipeptides were tested at 0.5 mM, 1 mM and 5 mM; Cu(II) was tested at 0.2 μM, 1 μM and 5 μM. For the treatment of Agarabi CHO cells, serial dilutions of I-cysteine, (Ala-Cys)2 and (Lys-Cys)2 stock solutions in complete growth medium were performed with 2× treatment concentration at each dilution step. On Agarabi CHO cells, I-cysteine and the dipeptides were tested at 2.5 mM, 5 mM and 10 mM; Cu(II) was tested at 2.5 μM, 10 μM and 40 μM.
(§3) The cytotoxicity of the test compounds and their combinations was assayed on MSCs and Agarabi CHO cells cultivated in white 96-well cell culture plates at 5.000 cells/well. MSCs (50 μL/well) were cultivated for 24 h in a CO2-incubator (37° C., 5% CO2, 95% humidity) to ensure cell adhesion. This was followed by the addition of the prepared 2× concentrated test compounds and mixtures (50 μL/well). […]
(§4) After incubation, the viability of the treated cells was determined based on adenosine triphosphate (ATP) quantification using the CellTiter-Glo® Luminescent Cell Viability Assay (Promega) according to the manufacturer's instructions.
(§5) To calculate the cell viability, resulting luminescence values were averaged and normalized to the signal emitted by the untreated cells.

Agarabi CHO cells = test: In vitro cytotoxicity assay (CellTiter-Glo ATP viability) on Agarabi CHO cells; format: cell-based; conditions: for positive effect on viability of dipeptide combined with Cu(II): Agarabi CHO cells, 96 h, selected combinations of dipeptide and Cu(II)
Method: as §1, §2, §3, §4, §5

SMILES	effect of single component on cell viability ([1]; single component controls, L-cysteine and dipeptides up to 5 mM, Cu(II) up to 5 μM)	effect of single component on cell viability (Agarabi CHO cells; CHO cells, single component control, Cu(II) up to 40 μM)	positive effect on viability of dipeptide combined with Cu(II) [1]	positive effect on viability of dipeptide combined with Cu(II) (Agarabi CHO cells)
O.O.O.O.O.O=S(=O)([O-])[O-].[Cu+2] [Cu(II), Copper (II) sulfate pentahydrate, reference compound]	did not have a negative effect on viability	did not have a negative effect on viability		
NCCCC[C@H](N)C(=O)N[C@@H](CSSC[C@H](NC(=O)[C@@H](N)CCCCN)C(=O)O)C(=O)O [(Lys-Cys)2, N,N′-di-L-lysyl-L-cystine] (I: H-Lys-Cys-OH / II: H-Lys-Cys-OH; disulfide I:2-II:2)			pronounced positive effect on viability; also recorded: viability was even increased	pronounced positive effect on viability; also recorded: viability was even increased
C[C@H](N)C(=O)N[C@@H](CSSC[C@H](NC(=O)[C@H](C)N)C(=O)O)C(=O)O [(Ala-Cys)2, N,N′-di-L-alanyl-L-cystine] (I: H-Ala-Cys-OH / II: H-Ala-Cys-OH; disulfide I:2-II:2)			pronounced positive effect on viability; also recorded: viability was even increased	pronounced positive effect on viability; also recorded: viability was even increased
